Results as given in PMC9112550, “Optimization of the antimicrobial peptide Bac7 by deep mutational scanning” (BMC Biology, 2022).
In brackets after ≈: the same amount, converted by molar mass.

What was measured:
E. coli TOP10 [1] = assay type: cell-based; conditions: data not shown
Procedure: Bacterial cells were grown in cation-adjusted Mueller Hinton Broth (MHB II) overnight to stationary phase. The cultures were then supplemented with 200 g l^−1 glycerol, aliquoted, and frozen at −80°C. […] The purified peptides were thawed and the concentration was determined by RP-HPLC as described before. The peptides were diluted with sterile water to 4-fold the desired assays starting concentration and to a final volume of 50 μl. […] The first well of each MIC dilution series was filled with 20 μl of 2-fold concentrated MHB II, wells 2–11 with 20 μl of MHB II, and well 12 with 40 μl MHB II (sterility control). Next, 20 μl of the peptide dilution was added to the first well, mixed, and a log2-serial dilution was performed from wells 1 to 10 (20 μl transfer volume). Well 11 served as growth control (i.e., no peptide added). In the last step, 20 μl of the bacterial cell suspension was added to wells 1–11 either using the pipetting robot (E. coli TOP10, BW25113, BW25113 ΔsbmA, and ATCC 25922) or by manual pipetting (E. coli clinical isolates). The plates were sealed airtight and incubated for 18 h without shaking at 37°C before reading the OD using an Infinite 200 PRO plate reader (Tecan, Männedorf, CH). […] All MIC experiments were determined in technical replicate.

E. coli TOP10 [2] = experiment: Membrane damage assay in MHB II (GFP loss, PI uptake); assay type: cell-based; conditions: at its MIC

With `CC[C@H](C)[C@H](NC(=O)CN)C(=O)NCC(=O)N[C@@H](C)C(=O)N[C@H](C(=O)N[C@@H](CC(C)C)C(=O)N[C@@H](CCCCN)C(=O)N[C@H](C(=O)N[C@@H](CC(C)C)C(=O)N[C@H](C(=O)N[C@H](C(=O)NCC(=O)N[C@@H](CC(C)C)C(=O)N1CCC[C@H]1C(=O)N[C@@H](C)C(=O)N[C@@H](CC(C)C)C(=O)N[C@H](C(=O)N[C@@H](CO)C(=O)N[C@@H](Cc1c[nH]c2ccccc12)C(=O)N[C@H](C(=O)N[C@@H](CCCCN)C(=O)N[C@@H](CCCNC(=N)N)C(=O)N[C@@H](CCCCN)C(=O)N[C@@H](CCCNC(=N)N)C(=O)N[C@@H](CCC(N)=O)C(=O)N[C@@H](CCC(N)=O)C(N)=O)[C@@H](C)CC)[C@@H](C)CC)[C@@H](C)O)[C@@H](C)O)C(C)C)C(C)C` [melittin] the MIC (E. coli TOP10 [1]) was 5.0 µM (≈ 14.2 µg/mL) and the “PI uptake and loss of GFP” value (E. coli TOP10 [2]) was “rapidly induced PI uptake and loss of GFP”.
